Data: paper PMC4904262 (ACS Medicinal Chemistry Letters, 2016)

Columns and labels:
[1] = biological target: CAMKIIBETA (Homo sapiens, UniProt Q13554); conditions: 1 µM, ATP at Km
[2] = biological target: EPHA3 (Homo sapiens, UniProt P29320); conditions: 1 µM, ATP at Km
[3] = biological target: EPHA7 (Homo sapiens, UniProt Q15375); conditions: 1 µM, ATP at Km
[4] = biological target: PIM-1 (Homo sapiens, UniProt P11309); conditions: 1 µM, ATP at Km
[5] = biological target: GSK3ALPHA (Homo sapiens, UniProt P49840); conditions: 1 µM, ATP at Km
[6] = biological target: SRPK1 (Homo sapiens, UniProt Q96SB4); conditions: 1 µM, ATP at Km
[7] = biological target: EPHA1 (Homo sapiens, UniProt P21709); conditions: 1 µM, ATP at Km
[8] = biological target: SAPK4 (Homo sapiens, UniProt O15264); conditions: 1 µM, ATP at Km
[9] = biological target: ALK (Homo sapiens, UniProt Q9UM73); conditions: 1 µM, ATP at Km
[10] = biological target: PIM-2 (Homo sapiens, UniProt Q9P1W9); conditions: 1 µM, ATP at Km
Chain of PIM-2 (Q9P1W9 whole entry): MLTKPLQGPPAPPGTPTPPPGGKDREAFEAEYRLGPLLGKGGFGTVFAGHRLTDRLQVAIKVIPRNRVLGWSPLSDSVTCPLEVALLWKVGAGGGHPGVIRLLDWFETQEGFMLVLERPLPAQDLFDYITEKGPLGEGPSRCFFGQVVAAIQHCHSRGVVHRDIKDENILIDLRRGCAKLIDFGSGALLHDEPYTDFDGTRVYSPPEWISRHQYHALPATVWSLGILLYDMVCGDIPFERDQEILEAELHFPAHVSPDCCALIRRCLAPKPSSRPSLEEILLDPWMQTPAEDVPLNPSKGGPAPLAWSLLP

[11] = biological target: CDK7/CYCLINH/MAT1 (Homo sapiens, UniProt P50613); conditions: 1 µM, ATP at Km
[12] = biological target: IKKBETA (Homo sapiens, UniProt O14920); conditions: 1 µM, ATP at Km
[13] = biological target: FGFR4 (Homo sapiens, UniProt P22455); conditions: 1 µM, ATP at Km
[14] = biological target: ZIPK (Homo sapiens, UniProt O43293); conditions: 1 µM, ATP at Km
[15] = biological target: YES (Homo sapiens, UniProt P07947); conditions: 1 µM, ATP at Km
Chain of YES (P07947 whole entry): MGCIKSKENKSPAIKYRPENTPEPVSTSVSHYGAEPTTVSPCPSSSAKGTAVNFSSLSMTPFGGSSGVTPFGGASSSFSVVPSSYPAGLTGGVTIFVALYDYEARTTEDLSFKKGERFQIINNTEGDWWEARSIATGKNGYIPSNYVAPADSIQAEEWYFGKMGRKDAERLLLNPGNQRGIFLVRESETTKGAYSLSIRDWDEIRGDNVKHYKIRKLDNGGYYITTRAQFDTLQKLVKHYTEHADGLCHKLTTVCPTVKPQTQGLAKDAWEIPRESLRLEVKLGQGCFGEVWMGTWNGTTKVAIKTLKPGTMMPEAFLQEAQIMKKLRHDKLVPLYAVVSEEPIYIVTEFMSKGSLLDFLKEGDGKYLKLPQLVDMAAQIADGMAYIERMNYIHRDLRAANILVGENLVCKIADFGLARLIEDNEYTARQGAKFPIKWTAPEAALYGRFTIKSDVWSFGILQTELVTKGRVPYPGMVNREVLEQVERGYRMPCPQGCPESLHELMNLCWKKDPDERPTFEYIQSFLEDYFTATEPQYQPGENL

[16] = biological target: ULK3 (Homo sapiens, UniProt Q6PHR2); conditions: 1 µM, ATP at Km
[17] = biological target: TSSK1 (Homo sapiens, UniProt Q9BXA7); conditions: 1 µM, ATP at Km
[18] = biological target: […] (Homo sapiens, UniProt P16234); conditions: 1 µM, ATP at Km
[19] = biological target: FLT4 (Homo sapiens, UniProt P35916); experiment: biochemical; conditions: read-out: FLT4 inhibition
[20] = biological target: MRCKALPHA (Homo sapiens, UniProt Q5VT25); conditions: 1 µM, ATP at Km
Chain of MRCKALPHA (Q5VT25 whole entry): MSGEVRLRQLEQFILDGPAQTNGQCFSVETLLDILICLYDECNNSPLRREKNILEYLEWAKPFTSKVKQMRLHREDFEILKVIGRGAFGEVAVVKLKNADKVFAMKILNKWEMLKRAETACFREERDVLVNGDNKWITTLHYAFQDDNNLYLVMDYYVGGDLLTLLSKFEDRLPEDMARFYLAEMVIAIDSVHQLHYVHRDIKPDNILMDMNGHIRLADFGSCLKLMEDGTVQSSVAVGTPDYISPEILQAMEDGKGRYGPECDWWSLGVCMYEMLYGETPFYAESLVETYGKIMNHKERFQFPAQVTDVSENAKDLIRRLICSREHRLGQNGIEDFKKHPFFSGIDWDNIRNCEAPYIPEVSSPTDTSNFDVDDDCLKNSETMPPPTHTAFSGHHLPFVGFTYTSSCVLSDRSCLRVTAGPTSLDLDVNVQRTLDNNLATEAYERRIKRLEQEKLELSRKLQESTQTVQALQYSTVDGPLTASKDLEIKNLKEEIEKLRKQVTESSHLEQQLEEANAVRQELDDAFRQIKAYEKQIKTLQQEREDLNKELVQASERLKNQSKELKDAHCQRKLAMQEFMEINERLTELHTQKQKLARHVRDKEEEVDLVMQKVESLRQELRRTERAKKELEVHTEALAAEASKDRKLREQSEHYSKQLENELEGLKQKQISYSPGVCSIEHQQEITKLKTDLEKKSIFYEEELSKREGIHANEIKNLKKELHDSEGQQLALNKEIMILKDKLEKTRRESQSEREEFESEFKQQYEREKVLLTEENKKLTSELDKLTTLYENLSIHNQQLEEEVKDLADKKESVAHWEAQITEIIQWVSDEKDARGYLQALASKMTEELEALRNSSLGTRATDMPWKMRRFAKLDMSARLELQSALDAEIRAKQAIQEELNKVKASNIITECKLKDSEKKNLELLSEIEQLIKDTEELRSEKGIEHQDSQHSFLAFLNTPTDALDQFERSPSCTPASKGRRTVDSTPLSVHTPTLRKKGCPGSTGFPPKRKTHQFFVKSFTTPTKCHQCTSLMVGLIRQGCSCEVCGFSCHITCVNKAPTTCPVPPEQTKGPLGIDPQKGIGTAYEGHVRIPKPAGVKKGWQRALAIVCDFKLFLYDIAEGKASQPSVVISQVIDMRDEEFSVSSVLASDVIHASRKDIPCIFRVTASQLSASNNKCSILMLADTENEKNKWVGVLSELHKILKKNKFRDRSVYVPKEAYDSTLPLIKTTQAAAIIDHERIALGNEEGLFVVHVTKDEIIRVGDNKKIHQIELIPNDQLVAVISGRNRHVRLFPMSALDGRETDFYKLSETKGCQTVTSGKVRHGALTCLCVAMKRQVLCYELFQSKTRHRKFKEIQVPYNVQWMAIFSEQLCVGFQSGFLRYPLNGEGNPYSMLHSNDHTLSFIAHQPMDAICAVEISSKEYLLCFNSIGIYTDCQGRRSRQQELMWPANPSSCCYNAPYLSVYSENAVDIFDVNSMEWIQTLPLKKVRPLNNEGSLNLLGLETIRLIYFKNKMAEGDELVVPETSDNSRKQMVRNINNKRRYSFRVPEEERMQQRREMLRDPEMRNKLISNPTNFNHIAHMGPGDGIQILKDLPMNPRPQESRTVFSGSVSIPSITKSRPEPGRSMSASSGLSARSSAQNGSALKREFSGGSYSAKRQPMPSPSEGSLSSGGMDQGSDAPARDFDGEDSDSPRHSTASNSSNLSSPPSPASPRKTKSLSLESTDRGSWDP

[21] = biological target: MST3 (Homo sapiens, UniProt Q9Y6E0); conditions: 1 µM, ATP at Km
[22] = biological target: TGFBR1 (Homo sapiens, UniProt P36897); conditions: 1 µM, ATP at Km
[23] = biological target: JAK3 (Homo sapiens, UniProt P52333); conditions: 1 µM, ATP at Km
[24] = biological target: IGF-1R, ACTIVATED (Homo sapiens, UniProt P08069); conditions: 1 µM, ATP at Km
[25] = biological target: IR (Homo sapiens, UniProt P06213); conditions: 1 µM, ATP at Km
Chain of IR (P06213 28-1382): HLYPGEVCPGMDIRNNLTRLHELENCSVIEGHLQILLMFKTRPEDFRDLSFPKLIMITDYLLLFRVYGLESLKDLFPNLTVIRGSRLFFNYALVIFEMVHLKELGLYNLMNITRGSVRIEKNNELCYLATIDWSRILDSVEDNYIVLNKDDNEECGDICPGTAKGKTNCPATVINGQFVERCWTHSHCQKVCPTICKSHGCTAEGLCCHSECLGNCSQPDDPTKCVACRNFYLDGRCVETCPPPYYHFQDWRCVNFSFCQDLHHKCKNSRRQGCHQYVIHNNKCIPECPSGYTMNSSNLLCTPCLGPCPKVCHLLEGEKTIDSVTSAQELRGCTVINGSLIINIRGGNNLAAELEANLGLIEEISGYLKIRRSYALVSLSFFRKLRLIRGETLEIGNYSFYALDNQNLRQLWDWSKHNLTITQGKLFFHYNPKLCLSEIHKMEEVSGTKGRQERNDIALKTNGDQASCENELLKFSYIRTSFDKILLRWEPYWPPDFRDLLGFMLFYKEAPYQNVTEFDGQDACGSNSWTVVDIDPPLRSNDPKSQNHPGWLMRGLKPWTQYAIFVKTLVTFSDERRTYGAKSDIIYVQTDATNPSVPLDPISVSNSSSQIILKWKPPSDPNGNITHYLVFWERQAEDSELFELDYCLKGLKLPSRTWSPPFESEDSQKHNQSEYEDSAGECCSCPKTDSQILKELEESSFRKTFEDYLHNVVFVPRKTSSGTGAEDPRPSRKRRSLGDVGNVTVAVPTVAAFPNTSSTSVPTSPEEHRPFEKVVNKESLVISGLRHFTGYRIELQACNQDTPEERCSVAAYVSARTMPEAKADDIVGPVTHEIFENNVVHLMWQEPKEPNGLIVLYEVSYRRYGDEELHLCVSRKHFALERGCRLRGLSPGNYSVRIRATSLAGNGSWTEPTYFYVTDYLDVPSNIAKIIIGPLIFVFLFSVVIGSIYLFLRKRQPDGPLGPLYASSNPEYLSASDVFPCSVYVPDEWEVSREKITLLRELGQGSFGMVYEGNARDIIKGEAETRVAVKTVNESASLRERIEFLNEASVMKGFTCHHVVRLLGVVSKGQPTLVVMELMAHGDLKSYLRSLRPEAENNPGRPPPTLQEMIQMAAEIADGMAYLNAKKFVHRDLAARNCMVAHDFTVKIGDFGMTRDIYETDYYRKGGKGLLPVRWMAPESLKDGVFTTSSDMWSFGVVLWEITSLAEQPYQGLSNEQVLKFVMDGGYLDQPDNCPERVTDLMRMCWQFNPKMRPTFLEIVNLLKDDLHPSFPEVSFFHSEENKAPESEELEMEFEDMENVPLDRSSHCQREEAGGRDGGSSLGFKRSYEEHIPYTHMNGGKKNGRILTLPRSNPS

[26] = biological target: MKK6 (Homo sapiens, UniProt P52564); conditions: 1 µM, ATP at Km
[27] = biological target: SRPK2 (Homo sapiens, UniProt P78362); conditions: 1 µM, ATP at Km
[28] = biological target: PLK1 (Homo sapiens, UniProt P53350); conditions: 1 µM, ATP at Km
Chain of PLK1 (P53350 whole entry): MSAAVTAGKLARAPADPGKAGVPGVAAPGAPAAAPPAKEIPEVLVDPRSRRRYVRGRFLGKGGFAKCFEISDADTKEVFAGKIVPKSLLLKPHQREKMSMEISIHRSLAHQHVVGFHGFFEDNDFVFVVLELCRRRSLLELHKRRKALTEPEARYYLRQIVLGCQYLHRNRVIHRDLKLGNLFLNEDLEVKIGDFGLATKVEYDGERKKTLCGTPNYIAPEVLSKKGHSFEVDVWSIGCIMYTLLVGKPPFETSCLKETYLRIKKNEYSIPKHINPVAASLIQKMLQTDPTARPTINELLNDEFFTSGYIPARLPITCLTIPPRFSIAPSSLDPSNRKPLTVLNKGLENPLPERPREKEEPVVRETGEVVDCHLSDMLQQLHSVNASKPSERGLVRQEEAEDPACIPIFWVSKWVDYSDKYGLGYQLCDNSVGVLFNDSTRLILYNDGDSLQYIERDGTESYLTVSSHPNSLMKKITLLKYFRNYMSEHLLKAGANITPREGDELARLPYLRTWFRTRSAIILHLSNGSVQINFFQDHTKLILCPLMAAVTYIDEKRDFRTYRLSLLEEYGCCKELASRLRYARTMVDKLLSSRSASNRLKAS

[29] = biological target: RET (Homo sapiens, UniProt P07949); conditions: 1 µM, ATP at Km
[30] = biological target: NEK7 (Homo sapiens, UniProt Q8TDX7); conditions: 1 µM, ATP at Km
[31] = biological target: SAPK2B (Homo sapiens, UniProt Q15759); conditions: 1 µM, ATP at Km
[32] = biological target: SNK (Homo sapiens, UniProt Q9NYY3); conditions: 1 µM, ATP at Km
[33] = biological target: ITK (Homo sapiens, UniProt Q08881); conditions: 1 µM, ATP at Km
[34] = biological target: PI3K BETA (Homo sapiens, UniProt P42338); conditions: 1 µM, ATP at Km
[35] = biological target: RON (Homo sapiens, UniProt Q04912); conditions: 1 µM, ATP at Km
[36] = biological target: CDK2/CYCLINE (Homo sapiens, UniProt P24941); conditions: 1 µM, ATP at Km
[37] = biological target: MRCKBETA (Homo sapiens, UniProt Q9Y5S2); conditions: 1 µM, ATP at Km
[38] = biological target: FAK (Homo sapiens, UniProt Q05397); conditions: 1 µM, ATP at Km
[39] = biological target: MET (Homo sapiens, UniProt P08581); conditions: 1 µM, ATP at Km
[40] = biological target: MAPK1 (Homo sapiens, UniProt P27361); conditions: 1 µM, ATP at Km
[41] = biological target: PRAK (Homo sapiens, UniProt Q8IW41); conditions: 1 µM, ATP at Km
[42] = biological target: PEK (Homo sapiens, UniProt Q9NZJ5); conditions: 1 µM, ATP at Km
[43] = biological target: AURKB (Homo sapiens, UniProt Q96GD4); conditions: 1 µM, ATP at Km
[44] = biological target: BRK (Homo sapiens, UniProt Q13882); conditions: 1 µM, ATP at Km
[45] = biological target: MUSK (Homo sapiens, UniProt O15146); conditions: 1 µM, ATP at Km

Chain of PIM-1 (P11309 whole entry): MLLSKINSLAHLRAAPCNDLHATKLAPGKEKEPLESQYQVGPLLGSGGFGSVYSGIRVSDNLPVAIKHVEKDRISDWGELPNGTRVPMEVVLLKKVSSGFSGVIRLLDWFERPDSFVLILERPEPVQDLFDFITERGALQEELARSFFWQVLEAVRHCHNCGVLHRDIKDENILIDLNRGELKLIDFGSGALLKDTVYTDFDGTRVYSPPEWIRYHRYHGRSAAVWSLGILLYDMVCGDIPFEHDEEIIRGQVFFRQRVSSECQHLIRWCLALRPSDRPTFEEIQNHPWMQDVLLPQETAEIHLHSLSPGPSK

`COC1CN(C(=O)c2ccc3c(N)ncc(-c4ccc(-c5cnn(C)c5)cc4)c3n2)C1` [Compound 51] was tested, and the percentage effect [1] was -10%, the percentage effect [2] was 10% and the percentage effect [3] was -4%. The percentage effect [4] was -10%, the percentage effect [5] was -17% and the percentage effect [6] was 3%. For the same molecule, the percentage effect [7] was 7%, the percentage effect [8] was 2% and the percentage effect [9] was -20%. The percentage effect [10] was 16%, the percentage effect [11] was 20% and the percentage effect [12] was -14%. The percentage effect [13] was 3%, the percentage effect [14] was 25% and the percentage effect [15] was -22%. The percentage effect [16] was 2%, the percentage effect [17] was 5% and the percentage effect [18] was -3%. For the same molecule, the inhibition at 1 µM [19] was 54%, the percentage effect [20] was 2% and the percentage effect [21] was 7%. It also gave a percentage effect [22] of -5%, a percentage effect [23] of 2% and a percentage effect [24] of -18%. The percentage effect [25] was 3%, the percentage effect [26] was -4% and the percentage effect [27] was 0%. The percentage effect [28] was 1%, the percentage effect [29] was -2% and the percentage effect [30] was -6%. For the same molecule, the percentage effect [31] was 0%, the percentage effect [32] was 8% and the percentage effect [33] was -6%. For the same molecule, the percentage effect [34] was -3%, the percentage effect [35] was 15% and the percentage effect [36] was -1%. It also gave a percentage effect [37] of -4%, a percentage effect [38] of 3% and a percentage effect [39] of 22%. It also gave a percentage effect [40] of -13%, a percentage effect [41] of 15% and a percentage effect [42] of -6%. For the same molecule, the percentage effect [43] was 0%, the percentage effect [44] was 10% and the percentage effect [45] was 3%.
In the case of `COC1CN(C(=O)c2ccc3c(N)ncc(-c4ccc(-c5cnn(C)c5)cc4)c3c2)C1` [Compound 59], the percentage effect [1] is reported as 5%, the percentage effect [2] is reported as 10% and the percentage effect [3] is reported as 1%. The percentage effect [4] was -13%, the percentage effect [5] was -29% and the percentage effect [6] was -24%. For the same molecule, the percentage effect [7] was 4%, the percentage effect [8] was -13% and the percentage effect [9] was -30%. The percentage effect [10] was 14%, the percentage effect [11] was -4% and the percentage effect [12] was 8%. It also gave a percentage effect [13] of 14%, a percentage effect [14] of -5% and a percentage effect [15] of -18%. It also gave a percentage effect [16] of 8%, a percentage effect [17] of -14% and a percentage effect [18] of 11%. For the same molecule, the inhibition at 1 µM [19] was 62%, the percentage effect [20] was 0% and the percentage effect [21] was -34%. The percentage effect [22] was -4%, the percentage effect [23] was 14% and the percentage effect [24] was -10%. For the same molecule, the percentage effect [25] was -15%, the percentage effect [26] was -14% and the percentage effect [27] was -2%. For the same molecule, the percentage effect [28] was -6%, the percentage effect [29] was 6% and the percentage effect [30] was -26%. The percentage effect [31] was 43%, the percentage effect [32] was 3% and the percentage effect [33] was 2%. It also gave a percentage effect [34] of -2%, a percentage effect [35] of -11% and a percentage effect [36] of 1%. The percentage effect [37] was 13%, the percentage effect [38] was -18% and the percentage effect [39] was -19%. It also gave a percentage effect [40] of -20%, a percentage effect [41] of -17% and a percentage effect [42] of 1%. The percentage effect [43] was 14%, the percentage effect [44] was 5% and the percentage effect [45] was -18%.
